Reference: PubChem BioAssay AID1918996 (Molecular Pharmacology Branch, DTP, NCI, 2023)

Test system: 349418-098-R-PDC complex spheroid growth
Experiment: Anticancer human tumor 349418-098-R-PDC patient-derived lung adenocarcinoma cell line growth inhibition [AhR]
Settings: for IC50: curve of first compound; for viability, T/C: stronger effect = lower value
Outline: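 Complex tumor spheroids co-cultured with HUVEC and human MSC stroma; AhR antagonists tested in combination with standard-of-care and investigational agents. Top concentration at or near clinical Cmax (else 10 microM), half-log dilutions; growth expressed as percent test/control.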

[1] = second compound 0.1 µM, first compound 0.0316 µM
[2] = second compound 0.1 µM, first compound 0.1 µM
[3] = second compound 0.1 µM, first compound 0.316 µM
[4] = second compound 0.1 µM, first compound 1 µM
[5] = second compound 0.1 µM, first compound 3.16 µM
[6] = second compound 0.1 µM, first compound 10 µM
[7] = second compound 0.316 µM, first compound 0.0316 µM
[8] = second compound 0.316 µM, first compound 0.1 µM
[9] = second compound 0.316 µM, first compound 0.316 µM
[10] = second compound 0.316 µM, first compound 1 µM
[11] = second compound 0.316 µM, first compound 3.16 µM
[12] = second compound 0.316 µM, first compound 10 µM
[13] = second compound 1 µM, first compound 0.0316 µM
[14] = second compound 1 µM, first compound 0.1 µM
[15] = second compound 1 µM, first compound 0.316 µM
[16] = second compound 1 µM, first compound 1 µM
[17] = second compound 1 µM, first compound 3.16 µM
[18] = second compound 1 µM, first compound 10 µM
[19] = second compound 3.16 µM, first compound 0.0316 µM
[20] = second compound 3.16 µM, first compound 0.1 µM
[21] = second compound 3.16 µM, first compound 0.316 µM
[22] = second compound 3.16 µM, first compound 1 µM
[23] = second compound 3.16 µM, first compound 3.16 µM
[24] = second compound 3.16 µM, first compound 10 µM
[25] = second compound 10 µM, first compound 0.0316 µM
[26] = second compound 10 µM, first compound 0.1 µM
[27] = second compound 10 µM, first compound 0.316 µM
[28] = second compound 10 µM, first compound 1 µM
[29] = second compound 10 µM, first compound 3.16 µM
[30] = second compound 10 µM, first compound 10 µM
[31] = second compound 0.1 µM, first compound 0.00316 µM
[32] = second compound 0.1 µM, first compound 0.01 µM
[33] = second compound 0.316 µM, first compound 0.00316 µM
[34] = second compound 0.316 µM, first compound 0.01 µM
[35] = second compound 1 µM, first compound 0.00316 µM
[36] = second compound 1 µM, first compound 0.01 µM
[37] = second compound 3.16 µM, first compound 0.00316 µM
[38] = second compound 3.16 µM, first compound 0.01 µM
[39] = second compound 10 µM, first compound 0.00316 µM
[40] = second compound 10 µM, first compound 0.01 µM
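Also: spheroids exposed to agents for seven days before luminescence viability read.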
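For viability, T/C in this document: spheroids also contain HUVEC endothelial cells and human MSC stroma.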

| SMILES | IC50 (second compound 0.1 µM) [nM] | IC50 (second compound 0.316 µM) [nM] | IC50 (second compound 1 µM) [nM] | IC50 (second compound 3.16 µM) [nM] | IC50 (second compound 10 µM) [nM] | viability, T/C [1] [%] | viability, T/C [2] [%] | viability, T/C [3] [%] | viability, T/C [4] [%] | viability, T/C [7] [%] | viability, T/C [8] [%] | viability, T/C [9] [%] | viability, T/C [10] [%] | viability, T/C [13] [%] | viability, T/C [14] [%] | viability, T/C [15] [%] | viability, T/C [19] [%] | viability, T/C [20] [%] | viability, T/C [25] [%] | viability, T/C [26] [%] | further results |
| --- | --- | --- | --- | --- | --- | --- | --- | --- | --- | --- | --- | --- | --- | --- | --- | --- | --- | --- | --- | --- | --- |
| CC(C)c1c(-c2ccccc2)nc2c(C#N)c[nH]n2c1=O + Cc1ccccc1N=Nc1ccc(NC(=O)c2ccnn2C)c(C)c1 | > 10000 | > 10000 | > 10000 | > 10000 | > 10000 | 79.3 | 85.6 | 95.2 | 98 | 88.2 | 87.3 | 86.2 | 88.7 | 91.6 | 79.8 | 88.8 | 81.7 | 89.9 | 47.5 | 58.1 | viability, T/C [5]: 78%; viability, T/C [6]: 76.5%; viability, T/C [11]: 80%; viability, T/C [12]: 84.7%; viability, T/C [16]: 91.4%; viability, T/C [17]: 79.9%; viability, T/C [18]: 58.7%; viability, T/C [21]: 85.2%; viability, T/C [22]: 85.7%; viability, T/C [23]: 53.9%; viability, T/C [24]: 62.4%; viability, T/C [27]: 59.1%; viability, T/C [28]: 50.4%; viability, T/C [29]: 44.7%; viability, T/C [30]: 57.1% |
| COc1cc(C2c3cc4c(cc3C(OC3OC5COC(C)OC5C(O)C3O)C3COC(=O)C23)OCO4)cc(OC)c1O (stereo not given) + Cc1cncc(-c2nc(NCCc3c[nH]c4ccccc34)c3ncn(C(C)C)c3n2)c1 | 476 | 384 | 426 | < 31.6 | < 31.6 | 97.8 | 99 | 62.4 | 24.9 | 103 | 86.5 | 58.3 | 19.1 | 93.3 | 90.9 | 59.6 | 24 | 19.2 | 1.7 | 1.71 | viability, T/C [5]: 9.98%; viability, T/C [6]: 4.8%; viability, T/C [11]: 8.45%; viability, T/C [12]: 5.08%; viability, T/C [16]: 20.9%; viability, T/C [17]: 9.01%; viability, T/C [18]: 6.23%; viability, T/C [21]: 14.8%; viability, T/C [22]: 10.2%; viability, T/C [23]: 7.3%; viability, T/C [24]: 4.57%; viability, T/C [27]: 1.45%; viability, T/C [28]: 1.18%; viability, T/C [29]: 1.04%; viability, T/C [30]: 1.29% |
| Nc1ccn(C2OC(CO)C(O)C2(F)F)c(=O)n1 (stereo not given) + Cc1cncc(-c2nc(NCCc3c[nH]c4ccccc34)c3ncn(C(C)C)c3n2)c1 | < 31.6 | < 31.6 | < 31.6 | < 31.6 | < 31.6 | 5.21 | 5.33 | 4.29 | 4.06 | 5.26 | 5.35 | 4.46 | 4.46 | 5.67 | 5.73 | 5.73 | 8.15 | 6.5 | 4.66 | 3.51 | viability, T/C [5]: 3.79%; viability, T/C [6]: 3.29%; viability, T/C [11]: 3.84%; viability, T/C [12]: 3.1%; viability, T/C [16]: 4.6%; viability, T/C [17]: 6.45%; viability, T/C [18]: 3.8%; viability, T/C [21]: 5.64%; viability, T/C [22]: 4.25%; viability, T/C [23]: 4.89%; viability, T/C [24]: 3.39%; viability, T/C [27]: 3.29%; viability, T/C [28]: 4.08%; viability, T/C [29]: 2.99%; viability, T/C [30]: 2.51% |
| Nc1ncn(C2CC(O)C(CO)O2)c(=O)n1 (stereo not given) + Cc1cncc(-c2nc(NCCc3c[nH]c4ccccc34)c3ncn(C(C)C)c3n2)c1 | 177 | 221 | 305 | < 3.16 | < 3.16 | 80.3 | 59.9 | 40.9 | 29.1 | 83.2 | 69.9 | 40.7 | 25.7 | 82.7 | 68.6 | 50.1 | 21.9 | 17.4 | 1.75 | 1.51 | viability, T/C [31]: 88.5%; viability, T/C [32]: 97.9%; viability, T/C [33]: 93%; viability, T/C [34]: 88.3%; viability, T/C [35]: 84.6%; viability, T/C [36]: 87.2%; viability, T/C [16]: 34.3%; viability, T/C [37]: 20.6%; viability, T/C [38]: 21.6%; viability, T/C [21]: 17.7%; viability, T/C [22]: 16.2%; viability, T/C [39]: 1.51%; viability, T/C [40]: 1.55%; viability, T/C [27]: 1.2%; viability, T/C [28]: 1.31% |

More lines, main results first:

| IC50 (second compound 0.1 µM) [nM] | IC50 (second compound 0.316 µM) [nM] | IC50 (second compound 1 µM) [nM] | IC50 (second compound 3.16 µM) [nM] | IC50 (second compound 10 µM) [nM] | SMILES | viability, T/C [1] [%] | viability, T/C [2] [%] | viability, T/C [3] [%] | viability, T/C [4] [%] | viability, T/C [7] [%] | viability, T/C [8] [%] | viability, T/C [9] [%] | viability, T/C [10] [%] | viability, T/C [13] [%] | viability, T/C [14] [%] | viability, T/C [15] [%] | viability, T/C [19] [%] | viability, T/C [20] [%] | viability, T/C [25] [%] | viability, T/C [26] [%] | further results |
| --- | --- | --- | --- | --- | --- | --- | --- | --- | --- | --- | --- | --- | --- | --- | --- | --- | --- | --- | --- | --- | --- |
| 15.3 | 14.1 | 14.4 | < 0.316 | < 0.316 | CC[C@@]1(O)C(=O)OCc2c1cc1n(c2=O)Cc2cc3c(CN(C)C)c(O)ccc3nc2-1 + Cc1cncc(-c2nc(NCCc3c[nH]c4ccccc34)c3ncn(C(C)C)c3n2)c1 | 29.4 | 6.14 |  |  | 23.8 | 6.37 |  |  | 24.5 | 7.22 |  | 10.1 | 5.91 | 1.32 | 1.19 | viability, T/C (second compound 0.1 µM, first compound 0.000316 µM): 102%; viability, T/C (second compound 0.1 µM, first compound 0.001 µM): 93.9%; viability, T/C [31]: 91.6%; viability, T/C [32]: 60.7%; viability, T/C (second compound 0.316 µM, first compound 0.000316 µM): 87.3%; viability, T/C (second compound 0.316 µM, first compound 0.001 µM): 94%; viability, T/C [33]: 86.4%; viability, T/C [34]: 60.3%; viability, T/C (second compound 1 µM, first compound 0.000316 µM): 90.6%; viability, T/C (second compound 1 µM, first compound 0.001 µM): 93.5%; viability, T/C [35]: 84.2%; viability, T/C [36]: 62%; viability, T/C (second compound 3.16 µM, first compound 0.000316 µM): 24.8%; viability, T/C (second compound 3.16 µM, first compound 0.001 µM): 19.5%; viability, T/C [37]: 21%; viability, T/C [38]: 14.4%; viability, T/C (second compound 10 µM, first compound 0.000316 µM): 1.41%; viability, T/C (second compound 10 µM, first compound 0.001 µM): 1.47%; viability, T/C [39]: 1.56%; viability, T/C [40]: 1.49% |
| < 31.6 | < 31.6 | < 31.6 | < 31.6 | < 31.6 | COc1cccc2c1C(=O)c1c(O)c3c(c(O)c1C2=O)CC(O)(C(=O)CO)CC3OC1CC(N)C(O)C(C)O1 (stereo not given) + Cc1cncc(-c2nc(NCCc3c[nH]c4ccccc34)c3ncn(C(C)C)c3n2)c1 | 12.1 | 6.61 | 1.44 | 0.29 | 11.5 | 6.41 | 1.16 | 0.42 | 10.5 | 4.41 | 1.26 | 4.44 | 3.03 | 0.79 | 0.69 | viability, T/C [5]: 2.68%; viability, T/C [6]: 3.48%; viability, T/C [11]: 2.47%; viability, T/C [12]: 4%; viability, T/C [16]: 0.31%; viability, T/C [17]: 2.61%; viability, T/C [18]: 3.54%; viability, T/C [21]: 0.5%; viability, T/C [22]: 0.32%; viability, T/C [23]: 2.14%; viability, T/C [24]: 3.34%; viability, T/C [27]: 0.23%; viability, T/C [28]: 0.5%; viability, T/C [29]: 1.35%; viability, T/C [30]: 1.99% |
